Measured values: publication PMC5378956, “Inhibition of delta-secretase improves cognitive functions in mouse models of Alzheimer's disease” (Nature Communications, 2017)
Where two headings read alike, the source gives them in different places.

Tests used:
[1] = Caco-2 monolayer permeability screen; details: human, Caco-2
Protocol: (§1) Supplementary Table 3: Caco-2 permeability and BBB-PAMPA permeability
(§2) For CaCo-2 permeability assay, cells were incubated with 10 µM of these reagents in
(§3) buffers for 2 h, and the receiver side buffer is removed for analysis by LC/MS/MS. Efflux […]
(§4) LLOQ: Lower Limit of Quantification; Papp: apparent permeability.

[2] = Liver microsomal stability, human; details: human, microsomes, 0.5 h, pH 7.4
Protocol: (§5) Supplementary Table 4: Liver microsomal stability
(§6) Compound Species Mean Remaining Parent Mean Remaining Parent
(§7) (with NADPH) (NADPH-free)
(§8) The test agents were incubated in duplicate with microsomes at 37 °C for 30 min. The reaction contained microsomal protein in 100 mM potassium phosphate, 2 mM NADPH, 3 mM MgCl2, pH 7.4. A control was run for each test agent omitting NADPH to detect NADPH-free degradation. Data are reported as % remaining of parent compound. ND, Peak not detected due to bioanalysis issue (poor ionization).

[3] = Liver microsomal stability, mouse; details: mouse, microsomes, 0.5 h, pH 7.4
Protocol: as §5, §6, §7, §8

δ-secretase [4] = target: T1, δ-secretase (Homo sapiens, UniProt Q99538); experiment: IC50 assay with purified recombinant δ-secretase (AEP), substrate Cbz-Ala-Ala-Asn-AMC; format: biochemical
T1 construct: tested with purified active δ-secretase, IC50 values for the top 8 candidates were calculated; purchased Sino Biological (Beijing, China)
T1 sequence (Q99538 18-323 limits assumed): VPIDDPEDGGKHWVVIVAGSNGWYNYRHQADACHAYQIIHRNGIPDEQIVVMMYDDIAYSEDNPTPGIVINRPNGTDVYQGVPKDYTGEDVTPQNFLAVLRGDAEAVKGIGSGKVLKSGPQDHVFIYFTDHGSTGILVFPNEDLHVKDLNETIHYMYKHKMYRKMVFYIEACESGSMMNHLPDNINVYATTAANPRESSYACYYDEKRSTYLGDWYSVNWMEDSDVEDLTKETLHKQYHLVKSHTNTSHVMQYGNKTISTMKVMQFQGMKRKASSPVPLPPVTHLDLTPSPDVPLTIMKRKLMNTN
Protocol: δ-secretase – 50 nM enzyme was pre-incubated with inhibitor in assay buffer (50 mM Sodium Citrate pH 5.5, 0.1% CHAPS, 60 mM Na2HPO4, 1 mM EDTA) for 10 min at 37 °C. The reaction was initiated on addition of 10 μM Cbz-Ala-Ala-Asn-AMC (Bachem).
(§9) To determine the IC50 values of the compounds towards δ-secretase, cathepsin-S, cathepsin-L, caspase-3 and caspase-8, purified recombinant enzyme was incubated in appropriate assay buffers in the presence of increasing concentrations of inhibitors. The formation of fluorescent product was monitored in duplicate reactions and the data were fit to appropriate equations to calculate the IC50 values.

cathepsin-S = target: T2, cathepsin-S (Homo sapiens, UniProt P25774); experiment: IC50 assay with recombinant cathepsin-S; format: biochemical; details: for IC50: mean±s.d.
T2 construct: purchased Athens Research and Technology (Athens, GA)
T2 sequence (P25774 115-331, species assumed): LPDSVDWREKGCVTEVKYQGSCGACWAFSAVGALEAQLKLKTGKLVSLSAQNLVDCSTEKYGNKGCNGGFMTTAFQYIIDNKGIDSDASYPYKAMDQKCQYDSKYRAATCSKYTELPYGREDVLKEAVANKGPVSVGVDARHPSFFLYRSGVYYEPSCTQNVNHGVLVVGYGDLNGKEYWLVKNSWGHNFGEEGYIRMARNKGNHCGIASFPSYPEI
Protocol: Cathepsin-S – 100 nM enzyme was pre-incubated with inhibitor in assay buffer (100 mM NaH2PO4 pH 6.5, 100 mM NaCl) for 10 min at 37 °C. The reaction was initiated on addition of 25 μM substrate (Boc-Val-Leu-Lys-AMC (Bachem).
as §9

cathepsin-L = cathepsin-L (Homo sapiens, UniProt P07711); experiment: IC50 assay with cathepsin-L; format: biochemical; details: for IC50: mean±s.d.
Chain of cathepsin-L (P07711 114-333, species assumed): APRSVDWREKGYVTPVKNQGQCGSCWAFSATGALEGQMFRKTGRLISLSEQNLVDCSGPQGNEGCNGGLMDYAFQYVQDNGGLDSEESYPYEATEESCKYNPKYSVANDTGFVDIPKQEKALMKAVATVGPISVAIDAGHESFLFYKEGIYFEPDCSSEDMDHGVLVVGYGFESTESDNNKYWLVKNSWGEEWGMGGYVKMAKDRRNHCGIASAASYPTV
Protocol: Cathepsin-L – 100 nM enzyme was pre-incubated with inhibitor in assay buffer (100 mM Sodium Acetate pH 5.5, 1 mM EDTA) for 10 min at 37 °C. The reaction was initiated on addition of 25 μM substrate (D-Val-Leu-Lys-AMC (Bachem).
as §9

caspase-3 = target: T3, caspase-3 (Homo sapiens, UniProt P42574); experiment: IC50 assay with recombinant caspase-3; format: biochemical; details: for IC50: mean±s.d.
T3 construct: purchased Millipore (Billerica, MA)
T3 sequence (P42574 29-175 limits assumed): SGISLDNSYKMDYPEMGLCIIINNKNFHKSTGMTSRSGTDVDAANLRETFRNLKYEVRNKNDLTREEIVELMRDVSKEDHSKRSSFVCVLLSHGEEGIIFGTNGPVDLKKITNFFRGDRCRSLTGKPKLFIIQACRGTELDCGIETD
T3 sequence (P42574 176-277 limits assumed): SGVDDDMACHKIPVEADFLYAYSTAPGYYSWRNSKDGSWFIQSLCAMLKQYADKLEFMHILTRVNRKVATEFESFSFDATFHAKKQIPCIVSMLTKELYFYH
Protocol: (§10) Caspase-3 and 8 – The enzyme was pre-incubated with inhibitor in assay buffer (100 mM HEPES pH 7.4, 0.1% CHAPS, 10% Sucrose) for 10 min at 37 °C.
as §9

caspase-8 = target: T4, caspase-8 (Homo sapiens, UniProt Q14790); experiment: IC50 assay with recombinant caspase-8; format: biochemical; details: for IC50: mean±s.d.
T4 construct: purchased Millipore (Billerica, MA)
T4 sequence (Q14790 217-374 limits assumed, species assumed): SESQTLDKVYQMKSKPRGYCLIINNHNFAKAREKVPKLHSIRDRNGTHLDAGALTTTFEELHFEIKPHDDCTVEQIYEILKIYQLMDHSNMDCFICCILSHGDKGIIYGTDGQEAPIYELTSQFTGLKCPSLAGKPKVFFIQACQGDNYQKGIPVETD
T4 sequence (Q14790 385-479 limits assumed, species assumed): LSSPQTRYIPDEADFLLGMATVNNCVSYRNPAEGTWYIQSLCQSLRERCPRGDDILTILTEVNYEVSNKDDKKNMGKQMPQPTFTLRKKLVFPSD
Protocol: as §10, §9

δ-secretase [5] = target: T1, δ-secretase; experiment: DTT and L-cysteine reversibility of δ-secretase inhibition; format: biochemical; details: 10 mM DTT or L-cysteine, inhibitor at its IC50
[6] = target: T5, δ-secretase in Pala cells (Homo sapiens, UniProt Q99538); experiment: δ-secretase inhibition in intact Pala cells; details: for IC50 towards δ-secretase in Pala cells: intact cells, 2 h incubation, mean±s.d.
T5 sequence (Q99538 18-433): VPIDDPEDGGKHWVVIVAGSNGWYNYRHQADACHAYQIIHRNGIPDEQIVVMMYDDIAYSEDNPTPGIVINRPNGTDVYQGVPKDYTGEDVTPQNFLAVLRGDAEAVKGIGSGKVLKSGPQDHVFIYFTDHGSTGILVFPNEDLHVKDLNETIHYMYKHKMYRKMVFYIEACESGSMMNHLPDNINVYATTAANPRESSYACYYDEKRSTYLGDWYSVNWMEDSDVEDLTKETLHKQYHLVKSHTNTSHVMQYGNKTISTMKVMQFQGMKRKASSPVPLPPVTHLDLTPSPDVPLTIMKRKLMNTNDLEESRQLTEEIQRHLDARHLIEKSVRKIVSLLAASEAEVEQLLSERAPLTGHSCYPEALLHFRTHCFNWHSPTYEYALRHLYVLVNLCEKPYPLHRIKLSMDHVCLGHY

HepG2 cells = experiment: COMET assay and micronucleus assay in HepG2 cells; format: cell-based, human; details: 50 μM, 24 h
Protocol: Human hepatocellular carcinoma HepG2 cells were used to determine the genotoxicity of the compounds. The Comet Assay (single cell gel electrophoresis) was performed according to the protocol provided in the Trevigen Kit (4250-050-K). Briefly, cells were pre-treated for 24 h with vehicle control or 50 μM compounds. Cells were harvested, embedded in low-melt agarose and submerged in Lysis Buffer for 45 min at 4 °C. After incubation in Alkaline Unwinding Solution (300 mM NaOH, 1 mM EDTA) for 20 min, the cells were subjected to electrophoresis in Alkaline Unwinding Solution at 300 mA for 30 min. Slides were washed with 70% ethanol, dried and stained with SYBR Green for 30 min at room temperature. Nicked DNA was measured as percentage of tail DNA. One hundred comets were scored for each sample[39].
HepG2 cells were treated with vehicle or 50 μM compound for 24 h. Cells were washed with PBS, followed byincubation at a ratio of 1:19 in a hypotonic solution (75 mM KCl/0.9% NaCl) for 10 min at 37 °C. Next, the cells were fixed with methanol:glacial acetic acid (3:1) for 15 min at 37 °C, then rinsed and dried. Cells were stained with DAPI (2 μg ml^−1) for 30 min in the dark at room temperature, rinsed with water, dried and mounted with glycerol. One thousand cells per dish were analysed for each experiment; three independent experiments were performed.

Caco-2 monolayer = Caco-2 monolayer permeability screen; details: 10 µM, 2 h
Protocol: as §1, §2, §3, §4

CYP3A4 = CYP3A4 (Homo sapiens, UniProt P08684); experiment: CYP inhibition screening in microsomes; details: pH 7.4, probe midazolam
Chain of CYP3A4 (P08684 whole entry): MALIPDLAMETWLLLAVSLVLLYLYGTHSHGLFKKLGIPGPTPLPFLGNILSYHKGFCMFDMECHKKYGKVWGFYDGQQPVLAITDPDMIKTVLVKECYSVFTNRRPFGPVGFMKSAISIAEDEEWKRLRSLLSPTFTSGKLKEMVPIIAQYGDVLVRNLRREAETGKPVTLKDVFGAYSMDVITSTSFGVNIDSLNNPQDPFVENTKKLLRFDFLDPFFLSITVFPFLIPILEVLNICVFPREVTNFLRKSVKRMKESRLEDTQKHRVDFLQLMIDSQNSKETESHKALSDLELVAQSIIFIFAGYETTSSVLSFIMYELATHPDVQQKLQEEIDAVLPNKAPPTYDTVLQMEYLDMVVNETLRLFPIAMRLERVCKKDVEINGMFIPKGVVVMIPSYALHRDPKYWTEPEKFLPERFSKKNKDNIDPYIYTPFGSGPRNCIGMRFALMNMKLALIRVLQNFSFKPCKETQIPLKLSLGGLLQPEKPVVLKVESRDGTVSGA

CYP3A = experiment: CYP inhibition screening in microsomes; details: human, pH 7.4, probe testosterone
CYP2C9 = CYP2C9 (Homo sapiens, UniProt P11712); experiment: CYP inhibition screening in microsomes; details: pH 7.4
Chain of CYP2C9 (P11712 whole entry): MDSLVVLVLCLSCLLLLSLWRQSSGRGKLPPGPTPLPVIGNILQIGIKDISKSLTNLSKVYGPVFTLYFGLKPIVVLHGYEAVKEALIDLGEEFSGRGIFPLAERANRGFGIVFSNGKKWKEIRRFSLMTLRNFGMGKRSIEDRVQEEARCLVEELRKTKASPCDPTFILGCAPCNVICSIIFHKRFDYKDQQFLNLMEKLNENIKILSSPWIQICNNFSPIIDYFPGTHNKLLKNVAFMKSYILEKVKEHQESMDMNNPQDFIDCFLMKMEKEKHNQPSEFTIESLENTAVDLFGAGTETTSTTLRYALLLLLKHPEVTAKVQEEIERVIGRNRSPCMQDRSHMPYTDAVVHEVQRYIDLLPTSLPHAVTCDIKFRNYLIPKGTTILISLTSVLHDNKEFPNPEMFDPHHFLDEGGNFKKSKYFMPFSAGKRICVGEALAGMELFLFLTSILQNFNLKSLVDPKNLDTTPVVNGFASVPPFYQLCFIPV

CYP2D6 = CYP2D6 (Homo sapiens, UniProt P10635); experiment: CYP inhibition screening in microsomes; details: pH 7.4
Chain of CYP2D6 (P10635 whole entry): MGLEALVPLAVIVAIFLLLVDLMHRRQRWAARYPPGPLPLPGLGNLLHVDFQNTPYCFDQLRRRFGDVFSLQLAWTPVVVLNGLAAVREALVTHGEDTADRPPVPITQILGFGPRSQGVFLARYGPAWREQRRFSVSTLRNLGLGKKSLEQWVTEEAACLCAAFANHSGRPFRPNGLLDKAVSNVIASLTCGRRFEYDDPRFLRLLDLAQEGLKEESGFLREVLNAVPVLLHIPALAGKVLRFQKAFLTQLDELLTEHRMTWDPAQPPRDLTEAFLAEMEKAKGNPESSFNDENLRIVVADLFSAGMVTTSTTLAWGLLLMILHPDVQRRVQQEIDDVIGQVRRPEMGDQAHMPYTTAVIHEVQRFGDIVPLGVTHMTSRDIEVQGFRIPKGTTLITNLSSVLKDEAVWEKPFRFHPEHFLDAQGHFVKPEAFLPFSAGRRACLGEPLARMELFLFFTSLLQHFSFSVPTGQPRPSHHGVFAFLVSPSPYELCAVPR

CYP2C19 = CYP2C19 (Homo sapiens, UniProt P33261); experiment: CYP inhibition screening in microsomes; details: pH 7.4
Chain of CYP2C19 (P33261 whole entry): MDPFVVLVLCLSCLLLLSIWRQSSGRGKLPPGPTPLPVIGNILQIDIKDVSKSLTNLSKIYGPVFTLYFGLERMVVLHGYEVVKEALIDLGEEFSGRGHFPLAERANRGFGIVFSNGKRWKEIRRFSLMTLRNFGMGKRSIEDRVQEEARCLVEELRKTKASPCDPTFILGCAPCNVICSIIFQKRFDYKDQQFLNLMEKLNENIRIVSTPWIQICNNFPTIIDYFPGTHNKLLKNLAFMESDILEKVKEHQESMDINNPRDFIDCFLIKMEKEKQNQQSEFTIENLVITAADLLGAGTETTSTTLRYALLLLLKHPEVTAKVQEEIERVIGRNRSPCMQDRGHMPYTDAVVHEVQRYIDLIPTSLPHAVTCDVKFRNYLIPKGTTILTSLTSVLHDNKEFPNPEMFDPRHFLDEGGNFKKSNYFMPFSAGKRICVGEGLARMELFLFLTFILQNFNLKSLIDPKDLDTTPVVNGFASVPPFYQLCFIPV

CYP1A2 = target: T6, CYP1A2 (Homo sapiens, UniProt P05177); experiment: CYP inhibition screening in microsomes; details: pH 7.4
T6 sequence (P05177 1-516): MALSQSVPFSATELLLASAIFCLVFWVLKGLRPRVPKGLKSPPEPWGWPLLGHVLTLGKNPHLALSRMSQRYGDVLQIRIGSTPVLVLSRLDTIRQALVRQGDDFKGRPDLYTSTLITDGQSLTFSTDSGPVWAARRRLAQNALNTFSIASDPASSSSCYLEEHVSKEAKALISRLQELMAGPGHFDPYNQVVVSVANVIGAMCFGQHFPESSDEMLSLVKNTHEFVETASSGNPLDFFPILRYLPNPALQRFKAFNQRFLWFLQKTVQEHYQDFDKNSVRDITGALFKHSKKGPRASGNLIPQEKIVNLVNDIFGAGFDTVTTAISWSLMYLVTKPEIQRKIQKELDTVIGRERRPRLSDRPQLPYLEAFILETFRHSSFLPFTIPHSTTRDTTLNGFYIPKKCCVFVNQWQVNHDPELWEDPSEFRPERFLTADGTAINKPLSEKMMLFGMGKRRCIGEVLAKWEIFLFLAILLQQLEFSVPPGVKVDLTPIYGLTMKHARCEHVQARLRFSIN

[7] = purified recombinant enzyme, mean±s.d., read-out: IC50 AEP (δ-secretase)

Papp A→B at 2 h, 10 µM [1] | IC50 (δ-secretase [4]; [7]) | IC50 (cathepsin-S) | IC50 (cathepsin-L) | IC50 (caspase-3) | IC50 (caspase-8) | IC50 [6] | IC50 towards δ-secretase in Pala cells [6] | Compound | recovery of δ-secretase activity on addition of reducing agents (δ-secretase [5]) | also measured
 | 2370 nM | > 100 µM | > 100 µM | 15.4 ± 7.04 µM | > 100 µM | 290 ± 210 nM |  | CCN(CC)c1ccc(CN2CCc3nc(C)[nH]c(=O)c3C2)c(OC)c1 [compound 64] |  | selectivity for δ-secretase compared to cathepsin-S (cathepsin-S): over 40 fold; selectivity for δ-secretase compared to cathepsin-L (cathepsin-L): over 40 fold; selectivity for δ-secretase compared to caspase-3 (caspase-3): about 6 fold; selectivity for δ-secretase compared to caspase-8 (caspase-8): over 40 fold; A->B Papp (Caco-2 monolayer): < LLOQ; B->A Papp (Caco-2 monolayer): < LLOQ; inhibition at 10 min, 3 µM (CYP3A4): 0.6%; inhibition at 10 min, 10 µM (CYP3A4): 10.1%; inhibition at 10 min, 3 µM (CYP3A): 1.5%; inhibition at 10 min, 10 µM (CYP3A): -0.1%; inhibition at 10 min, 3 µM (CYP2C9): 4.6%; inhibition at 10 min, 10 µM (CYP2C9): 7.9%; inhibition at 10 min, 3 µM (CYP2D6): 34.6%; inhibition at 10 min, 10 µM (CYP2D6): 58.3%; inhibition at 10 min, 3 µM (CYP2C19): 31.6%; inhibition at 10 min, 10 µM (CYP2C19): 20.4%; inhibition at 10 min, 3 µM (CYP1A2): 23.7%; inhibition at 10 min, 10 µM (CYP1A2): 22.2%
 | 130 ± 90 nM | > 200 µM | 5.66 ± 0.36 µM | > 200 µM | 28.7 ± 11.2 µM | 1570 ± 140 nM | slightly larger IC50 values | Sc1nnc(Nc2ccccc2)s1 [compound BB1] | regained a substantial amount of activity | ligand efficiency (δ-secretase [4]): 0.75; IC50 (δ-secretase [4]; purified active δ-secretase, read-out: IC50 / potency toward δ-secretase): ~130 nM

Further lines, the molecule ahead of its results:

Compound | Papp A→B at 2 h, 10 µM [1] | IC50 (δ-secretase [4]; [7]) | IC50 (cathepsin-S) | IC50 (cathepsin-L) | IC50 (caspase-3) | IC50 (caspase-8) | IC50 [6] | IC50 towards δ-secretase in Pala cells [6] | recovery of δ-secretase activity on addition of reducing agents (δ-secretase [5]) | also measured
CNC(=C[N+](=O)[O-])NCCSCc1ccc(CN(C)C)o1 [Ranitidine, reference compound] | 0.8 ×10⁻⁶ cm/s |  |  |  |  |  |  |  |  | 
CC(=O)CC(c1ccccc1)c1c(O)c2ccccc2oc1=O (stereo not shown) [Warfarin, reference compound] | 28.5 ×10⁻⁶ cm/s |  |  |  |  |  |  |  |  | Papp B→A at 2 h, 10 µM [1]: 12.6 ×10⁻⁶ cm/s; Mean Remaining Parent (NADPH-free) [2]: 104%; Mean Remaining Parent (with NADPH) [2]: 96%; Mean Remaining Parent (NADPH-free) [3]: 100%; Mean Remaining Parent (with NADPH) [3]: 91%
N#CSc1cnc(N)s1 [compound 10] |  | 710 ± 50 nM | > 200 µM | 3.79 ± 0.29 µM | 44.6 ± 5.01 µM | > 200 µM | 7860 ± 5670 nM | slightly larger IC50 values | regained a substantial amount of activity | 
CN(C)c1ccc(N2C(=O)C=CC2=O)cc1 [compound 22] |  | 210 ± 10 nM | > 100 µM | > 100 µM | > 100 µM | > 100 µM |  |  |  | genotoxicity (COMET and micronucleus assay) (HepG2 cells): show genotoxicity
